Common to all, as to format: functional
One assay concerns the target T1, Leucine aminopeptidase (Plasmodium falciparum 3D7, UniProt Q8IL11).
T1 sequence (Q8IL11 whole entry): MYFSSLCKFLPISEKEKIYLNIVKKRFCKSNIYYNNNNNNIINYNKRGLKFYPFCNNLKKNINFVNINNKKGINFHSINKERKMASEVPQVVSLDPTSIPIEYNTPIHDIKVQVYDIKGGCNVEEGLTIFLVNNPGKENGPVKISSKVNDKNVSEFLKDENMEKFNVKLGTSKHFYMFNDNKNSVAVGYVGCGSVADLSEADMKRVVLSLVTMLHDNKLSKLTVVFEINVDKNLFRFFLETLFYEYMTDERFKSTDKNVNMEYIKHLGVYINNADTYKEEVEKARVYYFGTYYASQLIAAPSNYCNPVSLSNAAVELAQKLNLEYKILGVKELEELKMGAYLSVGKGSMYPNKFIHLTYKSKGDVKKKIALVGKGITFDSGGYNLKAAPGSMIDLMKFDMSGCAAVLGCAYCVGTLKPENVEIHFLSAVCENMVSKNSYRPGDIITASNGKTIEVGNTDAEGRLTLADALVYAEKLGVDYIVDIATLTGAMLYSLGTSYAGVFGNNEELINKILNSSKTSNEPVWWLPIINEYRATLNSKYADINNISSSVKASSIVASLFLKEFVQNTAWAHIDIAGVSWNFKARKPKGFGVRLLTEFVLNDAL
Description: P. falciparum M17LAP inhibitors, primary screen, biochemical, fluorogenic H-Leu-NHMec substrate, 1536-well (AID 1619).

Assay [1] deals with Ras and Rab interactor 1/Tyrosine-protein kinase ABL1 (Homo sapiens, UniProt P00519+Q13671).
Sequence of Ras and Rab interactor 1/Tyrosine-protein kinase ABL1 (P00519 whole entry): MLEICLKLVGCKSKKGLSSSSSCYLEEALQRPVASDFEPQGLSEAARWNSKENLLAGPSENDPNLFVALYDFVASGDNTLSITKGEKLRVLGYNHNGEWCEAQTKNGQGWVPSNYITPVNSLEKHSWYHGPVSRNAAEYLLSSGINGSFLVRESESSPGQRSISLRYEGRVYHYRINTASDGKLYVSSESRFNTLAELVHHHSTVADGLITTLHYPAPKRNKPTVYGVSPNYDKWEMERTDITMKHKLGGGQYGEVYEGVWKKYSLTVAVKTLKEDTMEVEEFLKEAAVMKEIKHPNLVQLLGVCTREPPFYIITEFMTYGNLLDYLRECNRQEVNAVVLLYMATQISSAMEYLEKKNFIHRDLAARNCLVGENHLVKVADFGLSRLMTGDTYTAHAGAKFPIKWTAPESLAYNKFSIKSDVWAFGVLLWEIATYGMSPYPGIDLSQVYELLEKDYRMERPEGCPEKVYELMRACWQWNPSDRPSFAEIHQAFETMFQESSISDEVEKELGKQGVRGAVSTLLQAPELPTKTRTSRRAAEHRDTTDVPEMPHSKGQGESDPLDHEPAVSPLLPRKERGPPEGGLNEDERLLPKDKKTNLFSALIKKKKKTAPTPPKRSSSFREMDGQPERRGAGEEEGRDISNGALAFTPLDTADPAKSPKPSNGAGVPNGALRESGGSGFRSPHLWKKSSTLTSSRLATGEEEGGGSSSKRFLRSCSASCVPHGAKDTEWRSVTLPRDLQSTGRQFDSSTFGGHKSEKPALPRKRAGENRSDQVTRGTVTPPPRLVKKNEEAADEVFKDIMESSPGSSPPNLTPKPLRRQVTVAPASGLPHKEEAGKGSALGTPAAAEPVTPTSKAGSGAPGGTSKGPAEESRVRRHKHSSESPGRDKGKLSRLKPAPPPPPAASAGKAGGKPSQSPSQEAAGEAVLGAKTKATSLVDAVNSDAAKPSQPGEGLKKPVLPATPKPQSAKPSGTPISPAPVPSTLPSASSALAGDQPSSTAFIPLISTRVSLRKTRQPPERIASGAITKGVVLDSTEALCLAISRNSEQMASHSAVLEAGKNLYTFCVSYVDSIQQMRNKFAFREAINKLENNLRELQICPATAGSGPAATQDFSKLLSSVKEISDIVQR
Sequence of Ras and Rab interactor 1/Tyrosine-protein kinase ABL1 (Q13671 whole entry): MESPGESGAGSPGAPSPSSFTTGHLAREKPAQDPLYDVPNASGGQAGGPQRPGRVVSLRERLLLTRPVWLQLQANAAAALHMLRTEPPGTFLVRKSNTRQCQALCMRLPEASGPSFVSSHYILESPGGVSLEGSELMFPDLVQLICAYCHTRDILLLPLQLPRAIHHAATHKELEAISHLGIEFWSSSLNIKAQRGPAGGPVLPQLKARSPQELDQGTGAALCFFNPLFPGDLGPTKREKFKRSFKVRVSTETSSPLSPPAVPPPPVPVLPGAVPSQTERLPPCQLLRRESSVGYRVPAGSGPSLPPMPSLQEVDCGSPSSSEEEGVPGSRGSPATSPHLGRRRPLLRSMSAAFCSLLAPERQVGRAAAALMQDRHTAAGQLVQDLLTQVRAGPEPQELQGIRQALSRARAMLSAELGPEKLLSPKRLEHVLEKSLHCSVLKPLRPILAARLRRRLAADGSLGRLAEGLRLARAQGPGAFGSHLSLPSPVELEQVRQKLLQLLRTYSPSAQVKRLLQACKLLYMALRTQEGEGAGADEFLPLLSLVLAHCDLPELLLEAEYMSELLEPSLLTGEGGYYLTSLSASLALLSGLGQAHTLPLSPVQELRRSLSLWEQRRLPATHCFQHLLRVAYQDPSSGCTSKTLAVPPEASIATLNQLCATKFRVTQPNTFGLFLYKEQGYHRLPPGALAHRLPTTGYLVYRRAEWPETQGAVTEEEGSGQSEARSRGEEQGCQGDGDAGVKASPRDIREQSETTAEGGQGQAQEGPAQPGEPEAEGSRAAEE
For assay [2], the target named is V-type proton ATPase subunit c' (Saccharomyces cerevisiae S288c, UniProt P32842). Put plainly: Dose Response of Small Molecules that Regulate V-ATPase Proton Transport in Yeast using pHLuorin, Cherry Pick 2. As to conditions: read-out: EC50_MICROM.
Sequence of V-type proton ATPase subunit c' (P32842 whole entry): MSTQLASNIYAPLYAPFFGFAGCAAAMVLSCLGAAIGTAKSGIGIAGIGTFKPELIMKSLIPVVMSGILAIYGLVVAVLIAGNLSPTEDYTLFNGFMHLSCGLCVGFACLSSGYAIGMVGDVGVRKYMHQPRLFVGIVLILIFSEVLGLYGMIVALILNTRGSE
Assay [3] has as its target Mitochondrial peptide methionine sulfoxide reductase (Bos taurus, UniProt P54149).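 Also: absorbance read-out, biochemical high-throughput dose-response screen for MsrA inhibitors, confirmatory; recombinant bovine MsrA coupled to E. coli TrxB with NADPH and selenocystamine; potency is for inhibitors of MsrA activity on DMSO substrate.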

Active and inactive are the calls of the source.

What is called IC50 is the point on the concentration scale where inhibition reaches its midpoint.

Sequence of Mitochondrial peptide methionine sulfoxide reductase (P54149 whole entry): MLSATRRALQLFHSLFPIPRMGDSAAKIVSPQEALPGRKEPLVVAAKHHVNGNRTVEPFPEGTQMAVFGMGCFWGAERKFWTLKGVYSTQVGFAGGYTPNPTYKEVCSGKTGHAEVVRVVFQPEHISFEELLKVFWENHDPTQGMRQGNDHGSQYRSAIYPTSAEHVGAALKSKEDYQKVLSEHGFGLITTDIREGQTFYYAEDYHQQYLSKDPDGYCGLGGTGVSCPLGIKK

Turning to `Cc1ccc(-n2c(SCC(=O)N3Cc4ccccc4CC3C(=O)O)nnc2-c2cccnc2)c(C)c1` (centres undefined), the 50% inhibitory concentration (IC50) at Leucine aminopeptidase was 3.12 µM (active); in assay [1] it was 24.9 µM (inactive).
Take `O=C1C=CC(=Nc2ccc3c(c2)Cc2cc(F)ccc2-3)O1`: the EC50 in assay [2] was 7.26 µM (active).
Take `N#Cc1c(-n2cccc2/C=N/O)sc2c1CCCC2`: the IC50 in assay [3] was 155 µM (inactive).

The values above are taken from ChEMBL document CHEMBL1201862, “PubChem BioAssay data set” (2004).
